Paper PMC8698377, “In Vitro Hepatic Assessment of Cineole and Its Derivatives in Common Brushtail Possums (Trichosurus vulpecula) and Rodents” (Biology, 2021)

Assays:
CYP3A [1] = test: CYP3A catalytic activity (erythromycin-N-demethylation), rat hepatic microsomes; type: in vitro ADME; conditions: for activity at 30 min, 12.5 µM / activity at 30 min, 25 µM: liver microsomes, pH 7.4, probe erythromycin, read-out: CYP3A catalytic activity, % of Control
Experimental: (§1) Microsomal preparation was as previously outlined. Individual livers were placed in beakers containing 1.15% KCl. All the procedures were carried out at 0–4 °C. The liver samples were minced and homogenised in buffer A (0.1 M Tris, 0.1 M potassium chloride, 1 mM EDTA, and 20 μM butylated hydroxytoluene, at pH = 7.4) using the Teflon-glass homogeniser (5–6 vertical passes). The samples were centrifuged for 20 min at 10,000× g. The supernatant was then transferred into another set of centrifuge tubes and spun for 60 min at 100,000× g. The pellet was resuspended in Buffer B (0.1 M potassium pyrophosphate, 1 mM EDTA, and 20 μM butylated hydroxytoluene, at pH = 7.4), homogenised and recentrifuged for 60 min at 100,000× g. Finally, the pellet was homogenised in 1–2 mL of Buffer C (10 mM Tris-HCl, 1 mM EDTA, and 4% glycerol (v/v)) and stored at […] until used. The protein concentration of the microsomes was determined using the Bicinchoninic acid (BCA) method.
(§2) CYP3A catalytic activity was determined using the erythromycin-N-demethylation activity assay as described previously. The reaction mixture (final volume of 1 mL and final protein concentration of 1 mg) contained 500 µL of microsomes in 0.1 M phosphate buffer (pH = 7.4), 400 µL of erythromycin buffer (0.45 mM), and 50 µL of the test compound was pre-warmed at 37 °C for 2 min. The reaction was initiated with 50 µL of 2.5 mM […] and incubated at 37 °C for 30 min (optimised incubation time). The reaction was stopped with the addition of 330 µL of 15% zinc sulphate. Tubes were vortexed and left for 5 min (at room temperature) and then 330 µL of saturated barium hydroxide was added. Tubes were further vortexed and left for 5 min (at room temperature). Tubes were then centrifuged at 1800 g for 10 min. To 830 µL of the supernatant, 330 µL of Nash reagent (30% (w/v) ammonium acetate, 0.4% (v/v) acetyl acetone) was added and further incubated at 60 °C for 30 min. The blank tube contained 330 µL of Nash reagent and 830 µL of Milli-Q-water. The tubes were centrifuged again at 1800× g for 10 min and the absorbance was read at 415 nm. Results presented are the mean ± SEM of 3 independent experiments conducted in duplicate.

CYP3A [2] = test: CYP3A catalytic activity (erythromycin-N-demethylation), possum hepatic microsomes; type: in vitro ADME, possum (Trichosurus vulpecula); conditions: for activity at 30 min, 12.5 µM / activity at 30 min, 25 µM: possum (Trichosurus vulpecula), liver microsomes, pH 7.4, probe erythromycin, read-out: CYP3A catalytic activity, % of Control
Experimental: as §1, §2

UGT [3] = test: p-nitrophenol glucuronidation, rat hepatic microsomes; type: in vitro ADME
Experimental: as §1
(§3) The rate of p-nitrophenol glucuronidation was determined as previously reported. In short, the incubation mixture (500 µL in total) contained; 100 µL of 1 mg/mL microsomes, 50 µL of 1 M Tris-HCl (pH = 7.4), 20 µL of 0.25% (v/v) Triton-X 100, 50 µL of 50 mM MgCl2, 130 µL of double distilled water, 50 µL of 5 mM p-nitrophenol, 50 µL of the test compound, and 50 µL of uridine 5′-diphosphoglucuronic acid trisodium salt (UDPGA). The blank tubes had all components except UDPGA and microsomes; instead, 150 µL of 0.1 M phosphate buffer was added to equal the volume as the reaction mixture. The reaction mixture and the blank were incubated at 37 °C for 2 min. Then, 50 µL of 30 mM UDPGA was added to initiate the reaction which proceeded at 37 °C for 30 min (optimised incubation time). The reaction was stopped using 1 mL of 5% trichloroacetic acid (TCA). The tubes were centrifuged at 1800 g for 10 min and then 1 mL of supernatant was added to 250 µL of 2 M sodium hydroxide (NaOH). The absorbance was read at 405 nm. The sample reading was subtracted from the blank absorbance and divided by the extinction coefficient of p-nitrophenol ([…]) and the light path of the spectrophotometer (1 cm). The glucuronidation activities are expressed in µmol/mg/min and are the mean ± SEM of 3 independent experiments conducted in duplicate.

CYP3A [4] = test: CYP3A catalytic activity (erythromycin-N-demethylation), mouse hepatic microsomes; type: in vitro ADME; conditions: for activity at 30 min, 12.5 µM / activity at 30 min, 25 µM: read-out: CYP3A catalytic activity, % of Control
Experimental: as §1, §2

UGT [5] = test: p-nitrophenol glucuronidation, possum hepatic microsomes; type: in vitro ADME, possum (Trichosurus vulpecula)
Experimental: as §1, §3

UGT [6] = test: p-nitrophenol glucuronidation, mouse hepatic microsomes; type: in vitro ADME
Experimental: as §1, §3

[7] = test system: CYP enzymes (preferably CYP3A); parameters: method as in PMID 11465406; conditions: possums; cited from earlier work
rats = test system: rats; parameters: method as in PMID 6068552; conditions: cited from earlier work
dogs = conditions: cited from earlier work
mice = test system: mice; parameters: method as in earlier work; conditions: cited from earlier work
possums = test system: possums; parameters: method as in doi:10.1023/A:1020863216892; conditions: cited from earlier work
humans = test system: humans; parameters: method as in PMID 7651249; conditions: cited from earlier work
CYP3A [8] = conditions: possum vs human liver microsomes; cited from earlier work
[9] = liver microsomes, pH 7.4, probe erythromycin, 12.5 µM
[10] = liver microsomes, pH 7.4, probe erythromycin, 25 µM

Compound | CYP3A catalytic activity (CYP3A [1]; 12.5 µM) [nmol/mg/min] | CYP3A catalytic activity (CYP3A [1]; 25 µM) [nmol/mg/min] | activity at 30 min, 12.5 µM (CYP3A [1]; 12.5 µM) [%] | activity at 30 min, 25 µM (CYP3A [1]; 25 µM) [%] | CYP3A catalytic activity (CYP3A [2]; 12.5 µM) [nmol/mg/min] | CYP3A catalytic activity (CYP3A [2]; 25 µM) [nmol/mg/min] | activity at 30 min, 12.5 µM (CYP3A [2]; 12.5 µM) [%] | activity at 30 min, 25 µM (CYP3A [2]; 25 µM) [%] | p-nitrophenol glucuronidation activity (UGT [3]; 12.5 µM) [µmol/mg/min] | p-nitrophenol glucuronidation, % of Control (UGT [3]; 12.5 µM) [%] | p-nitrophenol glucuronidation activity (UGT [3]; 25 µM) [µmol/mg/min] | p-nitrophenol glucuronidation, % of Control (UGT [3]; 25 µM) [%] | CYP3A catalytic activity (CYP3A [4]; 12.5 µM) [nmol/mg/min] | CYP3A catalytic activity (CYP3A [4]; 25 µM) [nmol/mg/min] | activity at 30 min, 12.5 µM (CYP3A [4]; [9]) [%] | activity at 30 min, 25 µM (CYP3A [4]; [10]) [%] | p-nitrophenol glucuronidation activity (UGT [5]; 12.5 µM) [µmol/mg/min] | p-nitrophenol glucuronidation, % of Control (UGT [5]; 12.5 µM) [%] | p-nitrophenol glucuronidation activity (UGT [5]; 25 µM) [µmol/mg/min] | p-nitrophenol glucuronidation, % of Control (UGT [5]; 25 µM) [%] | also measured
CC12CCC(CC1=O)C2(C)C (stereo not shown) [Camphor, camphor] | 0.63 ± 0.03 | 0.59 ± 0.04 | 101 ± 3.99 | 95 ± 1.81 | 0.40 ± 0.03 | 0.41 ± 0.03 | 102 ± 2.05 | 104 ± 2.57 | 2.62 ± 0.09 | 102.59 ± 1.43 | 2.72 ± 0.24 | 106.26 ± 6.99 | 0.68 ± 0.02 | 0.68 ± 0.03 | 97.1 ± 2.15 | 96.3 ± 3.21 | 4.01 ± 0.33 | 102.42 ± 1.78 | 3.97 ± 0.33 | 101.32 ± 1.34 | p-nitrophenol glucuronidation activity (UGT [6]; 12.5 µM): 2.42 ± 0.08 µmol/mg/min; p-nitrophenol glucuronidation, % of Control (UGT [6]; 12.5 µM): 104.80 ± 1.79%; p-nitrophenol glucuronidation activity (UGT [6]; 25 µM): 2.31 ± 0.09 µmol/mg/min; p-nitrophenol glucuronidation, % of Control (UGT [6]; 25 µM): 100.10 ± 2.45%
CC12CCC(CC1)C(C)(C)O2 [Cineole, 1,3,3-trimethyl-2-oxabicyclo [2.2.2]octane] | 0.64 ± 0.05 | 0.65 ± 0.05 | 101 ± 2.31 | 101 ± 1.62 | 0.40 ± 0.01 | 0.41 ± 0.01 | 99.5 ± 2.67 | 101.9 ± 0.29 | 2.46 ± 0.12 | 90.25 ± 6.49 | 2.67 ± 0.21 | 98.18 ± 9.75 | 0.68 ± 0.02 | 0.64 ± 0.02 | 101 ± 2.93 | 94.5 ± 2.69 | 4.09 ± 0.18 | 99.39 ± 1.71 | 4.18 ± 0.13 | 101.80 ± 1.12 | share of total intrinsic clearance, 3-hydroxycineole [7]: 14%; share of total intrinsic clearance, 7-hydroxycineole [7]: 11%; share of total intrinsic clearance, conversion to 9-hydroxycineole [7]: 75%; inhibition of CYP3A catalytic activity (CYP3A [1]; 50 µM): no major inhibition; toxic dose following ingestion (rats): 2500 mg/kg; inhibition of CYP3A catalytic activity (CYP3A [2]; 50 µM): no major inhibition; inhibition of p-nitrophenol glucuronidation (UGT [3]; 50 µM): failed to significantly inhibit; toxic dose following ingestion (dogs): 1500 mg/kg; toxic dose following ingestion (mice): 50 mg/kg; toxic dose following ingestion (possums): 3600 mg/kg; activity at 30 min, 50 µM (CYP3A [4]; liver microsomes, pH 7.4, probe erythromycin, 50 µM, read-out: CYP3A catalytic activity, % of control): 89.3%; inhibition of p-nitrophenol glucuronidation (UGT [5]; 50 µM): failed to significantly inhibit; p-nitrophenol glucuronidation activity (UGT [6]; 12.5 µM): 2.00 ± 0.16 µmol/mg/min; p-nitrophenol glucuronidation, % of Control (UGT [6]; 12.5 µM): 100.36 ± 1.99%; p-nitrophenol glucuronidation activity (UGT [6]; 25 µM): 1.90 ± 0.16 µmol/mg/min; p-nitrophenol glucuronidation, % of Control (UGT [6]; 25 µM): 94.21 ± 1.51%; inhibition of p-nitrophenol glucuronidation (UGT [6]; 50 µM): failed to significantly inhibit; toxic dose following ingestion (humans): < 1000 mg/kg
C[C@]12CC(=O)C[C@@]1(C)CC(=O)C2 [cis-1,5-dimethylbicyclo[3.3.0]octane-3,7-dione] | 0.59 ± 0.04 | 0.60 ± 0.06 | 98.3 ± 3.1 | 99.3 ± 1 | 0.41 ± 0.02 | 0.40 ± 0.03 | 106 ± 1.42 | 103 ± 6.11 | 2.58 ± 0.03 | 98.32 ± 3.38 | 2.56 ± 0.02 | 97.79 ± 2.87 | 0.71 ± 0.03 | 0.70 ± 0.03 | 101 ± 2.7 | 99.64 ± 0.93 | 3.77 ± 0.28 | 93.15 ± 4.58 | 3.78 ± 0.28 | 93.30 ± 4.13 | p-nitrophenol glucuronidation activity (UGT [6]; 12.5 µM): 2.56 ± 0.11 µmol/mg/min; p-nitrophenol glucuronidation, % of Control (UGT [6]; 12.5 µM): 102.19 ± 2.82%; p-nitrophenol glucuronidation activity (UGT [6]; 25 µM): 2.40 ± 0.15 µmol/mg/min; p-nitrophenol glucuronidation, % of Control (UGT [6]; 25 µM): 95.72 ± 2.42%
COC(=O)[C@H]1CC[C@H](C(=O)OC)CC1 [dimethyl-trans-cyclohexane-1,4-dicarboxylate] | 0.64 ± 0.02 | 0.73 ± 0.06 | 102 ± 2.42 | 116 ± 5.35 | 0.39 ± 0.02 | 0.42 ± 0.03 | 102 ± 4.76 | 111 ± 6 | 2.71 ± 0.13 | 90.77 ± 2.49 | 2.83 ± 0.20 | 94.83 ± 5.80 | 0.72 ± 0.02 | 0.77 ± 0.05 | 100 ± 1.31 | 106 ± 4.88 | 3.96 ± 0.20 | 102.94 ± 4.63 | 3.92 ± 0.19 | 101.67 ± 0.92 | p-nitrophenol glucuronidation activity (UGT [6]; 12.5 µM): 2.43 ± 0.06 µmol/mg/min; p-nitrophenol glucuronidation, % of Control (UGT [6]; 12.5 µM): 107.00 ± 0.42%; p-nitrophenol glucuronidation activity (UGT [6]; 25 µM): 2.73 ± 0.12 µmol/mg/min; p-nitrophenol glucuronidation, % of Control (UGT [6]; 25 µM): 120.23 ± 8.23 %
Cc1ncc2n1-c1ccc(Cl)cc1C(c1ccccc1F)=NC2 [midazolam] |  |  |  |  |  |  |  |  |  |  |  |  |  |  |  |  |  |  |  |  | Vmax of 1′-hydroxylmiazolam, fold lower in possum than in human liver microsomes (CYP3A [8]): 8 fold; Vmax of 4-hydroxymidazolam, fold lower in possum than in human liver microsomes (CYP3A [8]): 23 fold
